According to the NIST ThermoML archive (doi:10.1021/je900387e):

Experiment: xn = mol fraction of the nth substance listed
Conditions: Liquid, Pycnometric method

CCCCBr [1-bromobutane] + O=C=O
Conditions | mass density [kg/m3]
332.4 K, 10370 kPa, x1 = 0.1495 | 915
332.4 K, 10440 kPa, x1 = 0.0461 | 587
332.4 K, 10440 kPa, x1 = 0.0683 | 677
332.4 K, 10510 kPa, x1 = 0.0989 | 783
332.4 K, 10520 kPa, x1 = 0.0461 | 595
332.4 K, 10560 kPa, x1 = 0.1495 | 918
332.4 K, 10570 kPa, x1 = 0.0683 | 686
332.4 K, 10590 kPa, x1 = 0.0461 | 603
332.4 K, 10650 kPa, x1 = 0.0989 | 788
332.4 K, 10710 kPa, x1 = 0.0683 | 694
332.4 K, 10720 kPa, x1 = 0.0461 | 615
332.4 K, 10750 kPa, x1 = 0.1495 | 921
332.4 K, 10820 kPa, x1 = 0.0989 | 793
332.4 K, 10870 kPa, x1 = 0.0683 | 703
332.4 K, 10880 kPa, x1 = 0.0461 | 627
332.4 K, 10940 kPa, x1 = 0.1495 | 924
332.4 K, 10990 kPa, x1 = 0.0989 | 798
332.4 K, 11050 kPa, x1 = 0.0683 | 712
332.4 K, 11070 kPa, x1 = 0.0461 | 640
332.4 K, 11120 kPa, x1 = 0.1495 | 927
332.4 K, 11180 kPa, x1 = 0.0989 | 804
332.4 K, 11240 kPa, x1 = 0.0683 | 721
332.4 K, 11270 kPa, x1 = 0.0461 | 654
332.4 K, 11310 kPa, x1 = 0.1495 | 930
332.4 K, 11390 kPa, x1 = 0.0989 | 808
332.4 K, 11460 kPa, x1 = 0.0683 | 730
332.4 K, 11510 kPa, x1 = 0.0461 | 668
332.4 K, 11530 kPa, x1 = 0.1495 | 933
332.4 K, 11600 kPa, x1 = 0.0989 | 814
332.4 K, 11720 kPa, x1 = 0.0683 | 739
332.4 K, 11730 kPa, x1 = 0.1495 | 936
332.4 K, 11780 kPa, x1 = 0.0461 | 683
332.4 K, 11830 kPa, x1 = 0.0989 | 819
332.4 K, 11970 kPa, x1 = 0.1495 | 939
332.4 K, 11980 kPa, x1 = 0.0461 | 689
332.4 K, 12000 kPa, x1 = 0.0683 | 749
332.4 K, 12060 kPa, x1 = 0.0989 | 825
332.4 K, 12190 kPa, x1 = 0.1495 | 942
332.4 K, 12220 kPa, x1 = 0.0461 | 703
332.4 K, 12330 kPa, x1 = 0.0461 | 708
332.4 K, 12330 kPa, x1 = 0.0683 | 759
332.4 K, 12330 kPa, x1 = 0.0989 | 830
332.4 K, 12450 kPa, x1 = 0.1495 | 945
332.4 K, 12620 kPa, x1 = 0.0989 | 836
332.4 K, 12650 kPa, x1 = 0.1495 | 948
332.4 K, 12670 kPa, x1 = 0.0683 | 770
332.4 K, 12920 kPa, x1 = 0.1495 | 951
332.4 K, 12930 kPa, x1 = 0.0989 | 842
332.4 K, 13080 kPa, x1 = 0.0683 | 780
332.4 K, 13170 kPa, x1 = 0.1495 | 954
332.4 K, 13250 kPa, x1 = 0.0989 | 847
332.4 K, 13470 kPa, x1 = 0.1495 | 958
332.4 K, 13540 kPa, x1 = 0.0683 | 791
332.4 K, 13600 kPa, x1 = 0.0989 | 853
332.4 K, 13750 kPa, x1 = 0.1495 | 961
332.4 K, 13980 kPa, x1 = 0.0989 | 859
332.4 K, 14040 kPa, x1 = 0.1495 | 964
332.4 K, 14050 kPa, x1 = 0.0683 | 802
332.4 K, 14320 kPa, x1 = 0.1495 | 967
332.4 K, 14360 kPa, x1 = 0.0989 | 865
332.4 K, 14630 kPa, x1 = 0.1495 | 970
332.4 K, 14640 kPa, x1 = 0.0683 | 814
332.4 K, 14810 kPa, x1 = 0.0989 | 871
332.4 K, 14910 kPa, x1 = 0.1495 | 973
332.4 K, 14960 kPa, x1 = 0.0683 | 820
332.4 K, 15090 kPa, x1 = 0.1495 | 975
335.9 K, 10180 kPa, x1 = 0.0683 | 589
335.9 K, 10200 kPa, x1 = 0.0683 | 591
335.9 K, 10210 kPa, x1 = 0.0683 | 593
335.9 K, 10240 kPa, x1 = 0.0683 | 597
335.9 K, 10250 kPa, x1 = 0.0683 | 601
335.9 K, 10310 kPa, x1 = 0.0683 | 607
335.9 K, 10380 kPa, x1 = 0.0683 | 614
335.9 K, 10450 kPa, x1 = 0.0683 | 620
335.9 K, 10540 kPa, x1 = 0.0683 | 627
335.9 K, 10610 kPa, x1 = 0.0683 | 634
335.9 K, 10700 kPa, x1 = 0.0683 | 641
335.9 K, 10790 kPa, x1 = 0.0683 | 649
335.9 K, 10940 kPa, x1 = 0.0683 | 660
335.9 K, 11140 kPa, x1 = 0.0683 | 672
335.9 K, 11350 kPa, x1 = 0.0683 | 684
335.9 K, 11590 kPa, x1 = 0.0683 | 697
335.9 K, 11870 kPa, x1 = 0.0683 | 710
335.9 K, 12340 kPa, x1 = 0.0683 | 728
335.9 K, 12930 kPa, x1 = 0.0683 | 747
335.9 K, 13690 kPa, x1 = 0.0683 | 767
335.9 K, 14350 kPa, x1 = 0.0683 | 783
335.9 K, 14890 kPa, x1 = 0.0683 | 794
335.9 K, 14990 kPa, x1 = 0.0683 | 797
335.9 K, 15110 kPa, x1 = 0.0683 | 800
337.4 K, 10000 kPa, x1 = 0.1495 | 872
337.4 K, 10190 kPa, x1 = 0.1495 | 876
337.4 K, 10210 kPa, x1 = 0.0461 | 479
337.4 K, 10240 kPa, x1 = 0.0989 | 714
337.4 K, 10260 kPa, x1 = 0.0461 | 482
337.4 K, 10290 kPa, x1 = 0.0989 | 717
337.4 K, 10310 kPa, x1 = 0.1495 | 879
337.4 K, 10340 kPa, x1 = 0.0461 | 492
337.4 K, 10360 kPa, x1 = 0.0989 | 722
337.4 K, 10430 kPa, x1 = 0.0461 | 502
337.4 K, 10430 kPa, x1 = 0.1495 | 881
337.4 K, 10440 kPa, x1 = 0.0989 | 726
337.4 K, 10520 kPa, x1 = 0.0989 | 730
337.4 K, 10540 kPa, x1 = 0.0461 | 513
337.4 K, 10580 kPa, x1 = 0.1495 | 884
337.4 K, 10590 kPa, x1 = 0.0989 | 735
337.4 K, 10660 kPa, x1 = 0.0461 | 524
337.4 K, 10690 kPa, x1 = 0.0989 | 739
337.4 K, 10690 kPa, x1 = 0.1495 | 887
337.4 K, 10790 kPa, x1 = 0.0461 | 537
337.4 K, 10790 kPa, x1 = 0.0989 | 743
337.4 K, 10810 kPa, x1 = 0.1495 | 889
337.4 K, 10890 kPa, x1 = 0.0989 | 748
337.4 K, 10910 kPa, x1 = 0.0461 | 549
337.4 K, 10970 kPa, x1 = 0.1495 | 893
337.4 K, 10990 kPa, x1 = 0.0989 | 752
337.4 K, 11060 kPa, x1 = 0.0461 | 563
337.4 K, 11100 kPa, x1 = 0.1495 | 895
337.4 K, 11130 kPa, x1 = 0.0989 | 757
337.4 K, 11230 kPa, x1 = 0.0461 | 577
337.4 K, 11240 kPa, x1 = 0.0989 | 762
337.4 K, 11250 kPa, x1 = 0.1495 | 898
337.4 K, 11370 kPa, x1 = 0.0461 | 588
337.4 K, 11370 kPa, x1 = 0.0989 | 766
337.4 K, 11420 kPa, x1 = 0.1495 | 901
337.4 K, 11510 kPa, x1 = 0.0461 | 599
337.4 K, 11520 kPa, x1 = 0.0989 | 771
337.4 K, 11580 kPa, x1 = 0.1495 | 904
337.4 K, 11680 kPa, x1 = 0.0461 | 611
337.4 K, 11680 kPa, x1 = 0.0989 | 776
337.4 K, 11740 kPa, x1 = 0.1495 | 906
337.4 K, 11830 kPa, x1 = 0.0989 | 781
337.4 K, 11860 kPa, x1 = 0.0461 | 623
337.4 K, 11920 kPa, x1 = 0.1495 | 909
337.4 K, 12010 kPa, x1 = 0.0989 | 786
337.4 K, 12070 kPa, x1 = 0.1495 | 912
337.4 K, 12080 kPa, x1 = 0.0461 | 636
337.4 K, 12200 kPa, x1 = 0.0989 | 791
337.4 K, 12280 kPa, x1 = 0.1495 | 915
337.4 K, 12320 kPa, x1 = 0.0461 | 649
337.4 K, 12390 kPa, x1 = 0.0989 | 796
337.4 K, 12490 kPa, x1 = 0.1495 | 918
337.4 K, 12580 kPa, x1 = 0.0461 | 663
337.4 K, 12620 kPa, x1 = 0.0989 | 801
337.4 K, 12680 kPa, x1 = 0.1495 | 921
337.4 K, 12850 kPa, x1 = 0.0989 | 806
337.4 K, 12890 kPa, x1 = 0.1495 | 924
337.4 K, 12910 kPa, x1 = 0.0461 | 674
337.4 K, 13110 kPa, x1 = 0.0989 | 812
337.4 K, 13130 kPa, x1 = 0.1495 | 927
337.4 K, 13260 kPa, x1 = 0.0461 | 693
337.4 K, 13320 kPa, x1 = 0.1495 | 930
337.4 K, 13360 kPa, x1 = 0.0989 | 817
337.4 K, 13530 kPa, x1 = 0.0461 | 703
337.4 K, 13550 kPa, x1 = 0.1495 | 933
337.4 K, 13650 kPa, x1 = 0.0989 | 822
337.4 K, 13770 kPa, x1 = 0.1495 | 936
337.4 K, 13920 kPa, x1 = 0.0989 | 828
337.4 K, 14020 kPa, x1 = 0.1495 | 939
337.4 K, 14220 kPa, x1 = 0.0989 | 833
337.4 K, 14300 kPa, x1 = 0.1495 | 942
337.4 K, 14530 kPa, x1 = 0.1495 | 945
337.4 K, 14570 kPa, x1 = 0.0989 | 839
337.4 K, 14750 kPa, x1 = 0.1495 | 948
337.4 K, 14880 kPa, x1 = 0.0989 | 844
337.4 K, 15050 kPa, x1 = 0.1495 | 951
337.4 K, 15220 kPa, x1 = 0.0989 | 850
337.9 K, 9120 kPa, x1 = 0.0245 | 280
337.9 K, 9150 kPa, x1 = 0.0245 | 283
337.9 K, 9220 kPa, x1 = 0.0245 | 288
337.9 K, 9290 kPa, x1 = 0.0245 | 292
337.9 K, 9370 kPa, x1 = 0.0245 | 297
337.9 K, 9440 kPa, x1 = 0.0245 | 303
337.9 K, 9520 kPa, x1 = 0.0245 | 308
337.9 K, 9600 kPa, x1 = 0.0245 | 314
337.9 K, 9680 kPa, x1 = 0.0245 | 320
337.9 K, 9750 kPa, x1 = 0.0245 | 325
337.9 K, 9830 kPa, x1 = 0.0245 | 331
337.9 K, 9920 kPa, x1 = 0.0245 | 338
337.9 K, 10000 kPa, x1 = 0.0245 | 345
337.9 K, 10080 kPa, x1 = 0.0245 | 352
337.9 K, 10180 kPa, x1 = 0.0245 | 359
337.9 K, 10270 kPa, x1 = 0.0245 | 367
337.9 K, 10360 kPa, x1 = 0.0245 | 375
337.9 K, 10450 kPa, x1 = 0.0245 | 383
337.9 K, 10560 kPa, x1 = 0.0245 | 391
337.9 K, 10620 kPa, x1 = 0.0245 | 397
337.9 K, 10630 kPa, x1 = 0.0245 | 399
